Test results taken from US5036081A, “Calcium absorption promoter” (Takeda Chemical Industries, Ltd., priority 1988, dated 1991).

Assays:
[1] = system: bone resorption (antebrachial bones, radius and ulna, of a fetus); assay: tissue or blood; format: cell-based, Sprague-Dawley rat; conditions: for ^45 Ca released into medium: 2 days, mean ± S.D. (n = 5)
Protocol: Effect of N-(1,3-dihydroxy-2-propyl)valiolamine and 1,25(OH)2 vitamin D3 on bone resorption
The bone resorption rate was determined by the method of Raisz (J. Clin. Invest. 44, 103-116, 1965). Thus, one Sprague-Dawley rat on day 18 of gestation was subcutaneously dosed with 50 μCi of ^45 Ca (an isotope of calcium, in CaCl2) and laparotomy was performed on the next day. The fetuses were aseptically taken out and under a dissecting microscope, the bilateral antebrachial bones (radius and ulna) of a fetus were cut off from the trunk. The connective tissues and cartilages were removed as much as possible to prepare a sample for bone culture. Each piece of bone was cultured in 0.6 ml of BGJb medium (Fitton-Jackson modification, GIBCO Laboratories, U.S.A., supplemented with 2 mg/ml of bovine serum albumin) at 37° C. for 24 hours and after addition of AO-128 at a final concentration of 10 μg/ml or 1,25(OH)2 vitamin D3 at a concentration of 0.8 pg/ml, was further incubated in the same medium for 2 days. The ^45 Ca radioactivity in the medium and that in the bone were respectively counted and the rate (%) of ^45 Ca release from the bone into the medium was calculated by means of the following equation. [formula]
The bones from another fetus of the same litter were incubated without addition of the test compounds for 2 days as controls. The means±S.D. of values found from 5 pieces of bone in each group was calculated and the percentage (%) of the mean value relative to the mean value of the control group was calculated.

[2] = Acute oral toxicity in rats; conditions: rat, in vivo, rats (Wistar)
[3] = Acute oral toxicity in mice; conditions: mouse, in vivo, mice (NRMI)
[4] = Exogenous calcium absorption promoting effect in rats (oral sucrose + calcium carbonate load, 24 hr urinary calcium); format: in vivo, male rats (Jcl: SD); conditions: for Urinary calcium: sucrose 2.5 g/kg, calcium carbonate 400 mg/kg, 24 hr urine, mean ± S.D.
Protocol: Exogenous calcium absorption promoting effect of N-(1,3-dihydroxy-2-propyl)valiolamine in rats
Eight-week-old male rats (Jcl: SD) fasted for 20 hours were orally dosed with 72.5% sucrose aqueous solution [2.5 g (sucrose)/kg (body weight)], 5% calcium carbonate aqueous suspension [400 mg (CaCO3)/kg (body weight)] and 0.015, 0.05 or 0.15% aqueous AO-128 solution [0.3, 1.0 or 3.0 mg ((AO-128)/kg (body weight)] and the 24 hr urine was collected for the determination of urinary calcium. The animals were deprived of food during urine collection but had free access to water. The results are shown in Table 2.

[5] = Dietary calcium absorption promoting effect in rats (medicated diet; body weight, food consumption, urinary and plasma calcium); format: in vivo, male rats (Jcl: SD); conditions: for Body weight / Plasma calcium / Food consumption / Urinary calcium: mean ± S.D., n=6; for Urinary calcium: ** = 1% level of significance vs control
Excerpt: Dietary calcium absorption promoting effect of N-(1,3-dihydroxy-2-propyl)valiolamine in rats
Five-week-old male rats (Jcl: SD) were divided into 2 groups and one group (control group) was given a regular diet (CE-2. Japan Clea Co.) while the other group was put on a medicated diet, i.e. CE-2 supplemented with N-(1,3-dihydroxy-2-propyl)valiolamine (AO-128). The level of addition of AO-128 was 10 ppm during the first 10 days and 25 ppm during the subsequent 7 days. On days 3, 10 and 17 of feeding, the body weight, food consumption, urinary calcium excretion, and plasma calcium concentration were determined.

[6] = Day 17, 10 ppm first 10 days then 25 ppm 7 days in diet

C=C1/C(=C\C=C2/CCC[C@]3(C)[C@@H]([C@H](C)CCCC(C)(C)O)CC[C@@H]23)C[C@@H](O)C[C@@H]1O [1,25(OH)2 vitamin D3, reference compound]
^45 Ca released into medium ([1]; 0.8 pg/ml, control 12.3 ± 2.2, *p < 0.001): 26.6 ± 2.2% | fold induction at 800 fg/mL ([1]; Rattus norvegicus, 48 h, read-out: increase in the release of ^45 Ca into the medium): 2.2

OCC(CO)N[C@H]1C[C@](O)(CO)[C@@H](O)[C@H](O)[C@H]1O [AO-128, N-(1,3-dihydroxy-2-propyl)valiolamine]
effect on bone resorption (in words) ([1]; 10 μg/ml): no change | ^45 Ca released into medium ([1]; 10 μg/ml, control 12.7 ± 3.2): 12.6 ± 2.5% | LD50 [2]: ~20000 mg/kg | LD50 [3]: 14700 to 21500 mg/kg | Urinary calcium ([4]; AO-128 0.3 mg/kg oral, n=7): 311 ± 214 µg/day | Urinary calcium ([4]; AO-128 1.0 mg/kg oral, n=6, * = 2% level of significance vs control): 441 ± 172 µg/day | Urinary calcium ([4]; AO-128 3.0 mg/kg oral, n=6, ** = 1% level of significance vs control): 517 ± 195 µg/day | absorption of calcium (in words) ([4]; administered concurrently with a carbohydrate and calcium, based on the two experiments): increases the absorption of calcium | urinary calcium (in words) ([4]; concurrent with calcium carbonate and sucrose): dose-dependent increase | body weight gain (in words) ([5]; AO-128 group, diet 10 then 25 ppm): a tendency of suppressed body weight gain | Body weight ([5]; Day 3, 10 ppm in diet): 143 ± 7 g | Plasma calcium ([5]; Day 3, 10 ppm in diet): 10.8 ± 0.5 mg/dL | Food consumption ([5]; Day 3, 10 ppm in diet, * = 5% level of significance vs control): 12.7 ± 1.7 g/day | Urinary calcium ([5]; Day 3, 10 ppm in diet): 1.99 ± 0.67 mg/day | Body weight ([5]; Day 10, 10 ppm in diet): 176 ± 8 g | Food consumption ([5]; Day 10, 10 ppm in diet): 22.7 ± 2.3 g/day | Plasma calcium ([5]; Day 10, 10 ppm in diet): 10.3 ± 0.5 mg/dL | Urinary calcium ([5]; Day 10, 10 ppm in diet): 2.10 ± 0.54 mg/day | Body weight [5, 6]: 250 ± 14 g | Food consumption [5, 6]: 24.5 ± 2.0 g/day | Plasma calcium [5, 6]: 9.9 ± 0.3 mg/dL | urinary calcium excretion (in words) ([5]; all determination days): increases | food consumption (in words) ([5]; day 3): slight decrease on day 3 | food consumption (in words) ([5]; day 10): recovery on day 10 | food consumption (in words) ([5]; day 17): a tendency of increase in day 17 | plasma calcium concentration (in words) ([5]; days 3, 10 and 17): no significant change
